From patent publication US10975037B2 (priority 2018, dated 2021)
Where a name gives a salt, the structure may show the parent alone. Read-outs that look alike come from different tables or passages of the source.

Columns and labels:
[1] = target: human RORγt ligand binding domain (RORγt LBD) (Homo sapiens (Human), UniProt P51449); test: RORγt ThermoFluor® assay (thermal shift binding)
Method in brief: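 Thermal shift with 0.065 mg/mL RORγt LBD and 60 μM 1,8-ANS in 100 mM Hepes pH 7.0, 10 mM NaCl, 2.5 mM GSH, 0.002% Tween-20.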

[2] = tested on: IL-17 production by CD4 T cells under conditions which favor Th17 differentiation; test: Human Th17 assay (IL-17 production by CD4 T cells); type: cell-based
Method: The human Th17 assay tests the effect of RORγt modulatory compounds on IL-17 production by CD4 T cells under conditions which favor Th17 differentiation. Total CD4^+ T cells were isolated from the peripheral blood mononuclear cells (PBMC) of healthy donors using a CD4^+ T cell isolation kit II, following the manufacturer's instructions (Miltenyi Biotec). […] 50 μL of compound at titrated concentrations in DMSO were added into each well at final DMSO concentration at 0.2%. Cells were incubated for 1 hour, then 50 μL of Th17 cell differentiation medium was added to each well. […] Cells were cultured at 37° C. and 5% CO2 for 3 days. Supernatants were collected and the accumulated IL-17 in culture was measured by using MULTI-SPOT® Cytokine Plate following manufacture's instruction (Meso Scale Discovery). The plate was read using Sector Imager 6000, and IL-17 concentration was extrapolated from the standard curve. The IC50s were determined by GraphPad.

[3] = target: full-length human RORγt (Homo sapiens (Human), UniProt P51449); test: RORγt (full-length human) reporter assay, conditions A or B, HEK293T cells; type: cell-based; settings: for IC50: RORγt (FL) Reporter Assay A or B, IC50, HEK293T cells; for inhibition at 6 µM: read-out: RORγt (FL) Reporter Assay A or B, % inhibition @ 6 μM, 6 μM compound concentration; for inhibition at 0.67 µM: 0.67 μM compound concentration (footnote ****); for inhibition at 3 µM: 3 μM compound concentration (footnote *)
Chain of full-length human RORγt (P51449 other isoform, or with tags, fused parts or gaps): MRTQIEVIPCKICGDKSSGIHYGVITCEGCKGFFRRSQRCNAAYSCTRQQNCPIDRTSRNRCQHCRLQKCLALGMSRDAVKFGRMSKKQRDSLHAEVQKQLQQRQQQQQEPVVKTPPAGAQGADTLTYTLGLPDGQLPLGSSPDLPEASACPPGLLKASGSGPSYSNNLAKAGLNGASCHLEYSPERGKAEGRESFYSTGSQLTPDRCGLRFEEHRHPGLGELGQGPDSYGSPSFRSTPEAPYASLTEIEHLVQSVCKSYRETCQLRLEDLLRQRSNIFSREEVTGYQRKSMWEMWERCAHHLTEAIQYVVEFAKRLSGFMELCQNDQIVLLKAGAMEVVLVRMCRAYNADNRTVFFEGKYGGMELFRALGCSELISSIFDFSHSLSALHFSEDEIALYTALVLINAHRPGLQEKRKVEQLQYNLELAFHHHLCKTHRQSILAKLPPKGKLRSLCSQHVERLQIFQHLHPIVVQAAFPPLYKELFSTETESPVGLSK
Method in brief: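 After 16–20 h, dual firefly/Renilla luciferase luminescence was read. Firefly signal was normalized to DMSO and saturating reference compound, then to Renilla, and fitted for IC50; % inhibition is versus DMSO.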

[4] = read-out: ThermoFluor® Assay, Kd
[5] = Homo sapiens, CD4+ T; read-out: Human Th17 Assay, IC50
[6] = HEK-293T, read-out: RORγt (FL) Reporter Assay A or B, % inhibition

Chain of human RORγt ligand binding domain (RORγt LBD) (P51449 other isoform, or with tags, fused parts or gaps): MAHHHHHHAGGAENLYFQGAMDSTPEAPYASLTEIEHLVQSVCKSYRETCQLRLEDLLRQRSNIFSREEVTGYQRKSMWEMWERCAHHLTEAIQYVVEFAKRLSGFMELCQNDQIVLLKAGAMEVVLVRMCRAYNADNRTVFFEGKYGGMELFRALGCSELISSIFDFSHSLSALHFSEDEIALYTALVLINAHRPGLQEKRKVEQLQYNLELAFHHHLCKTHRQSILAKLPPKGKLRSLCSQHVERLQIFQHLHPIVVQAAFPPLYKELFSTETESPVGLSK

| Compound | Kd [1, 4] [nM] | IC50 [2, 5] [nM] | IC50 [3] [nM] | Kd ([1]; ThermoFluor® Assay, Kd) [nM] | inhibition at 0.67 µM [3, 6] [%] | also measured |
| --- | --- | --- | --- | --- | --- | --- |
| CCn1nc(C(=O)NC[C@]2(O)CC[C@@H](S(C)(=O)=O)CC2)c(C)c1-c1ccc(CC(C)(C)C(F)(F)F)cc1OC(F)F [Example 143, 5-(2-(Difluoromethoxy)-4-(3,3,3-trifluoro-2,2-dimethylpropyl)phenyl)-1-ethyl-N-(((1s,4s)-1-hydroxy-4-(methylsulfonyl)cyclohexyl)methyl)-4-methyl-1H-pyrazole-3-carboxamide] | 0.37 | 10 | 7.3 | – | – | inhibition at […] ([3]; HEK-293T, 0.22 μM compound concentration (footnote *******), read-out: RORγt (FL) Reporter Assay A or B, % inhibition): 101% |
| CCn1nc(C(=O)NC[C@]2(O)CC[C@@H](S(C)(=O)=O)C[C@H]2O)c(Cl)c1-c1ccc(C[C@H](C)C(F)(F)F)cc1OC(F)F (stereo in doubt) [Example 53, 4-Chloro-5-(2-(difluoromethoxy)-4-((S*)-3,3,3-trifluoro-2-methylpropyl)phenyl)-N-(((1R*,2R*,4R*)-1,2-dihydroxy-4-(methylsulfonyl)cyclohexyl)methyl)-1-ethyl-1H-pyrazole-3-carboxamide] | – | 13 | 6.3 | 1.6 | – | inhibition at 1 µM ([3]; HEK-293T, 1 μM compound concentration (footnote ***), read-out: RORγt (FL) Reporter Assay A or B, % inhibition): 99% |
| COc1cc(N[C@H](C)C(F)(F)F)ccc1-c1c(Cl)c(C(=O)NC[C@H]2CC[C@H](S(C)(=O)=O)CC2)nn1CCC#N [Example 129, 4-Chloro-1-(2-cyanoethyl)-5-(2-methoxy-4-(((R)-1,1,1-trifluoropropan-2-yl)amino)phenyl)-N-(((1r,4R)-4-(methylsulfonyl)cyclohexyl)methyl)-1H-pyrazole-3-carboxamide] | – | 2300 | 810 | 72 | – | inhibition at 6 µM ([3]; HEK-293T): 102% |
| COCCn1nc(C(=O)NC[C@H]2CC[C@H](S(C)(=O)=O)CC2)c(Cl)c1-c1ccc(N[C@H](C)C(F)(F)F)cc1OC [Example 187, 4-Chloro-5-(2-methoxy-4-(((R)-1,1,1-trifluoropropan-2-yl)amino)phenyl)-1-(2-methoxyethyl)-N-(((1r,4R)-4-(methylsulfonyl)cyclohexyl)methyl)-1H-pyrazole-3-carboxamide] | – | 54 | 110 | 18 | – | inhibition at 6 µM ([3]; HEK-293T): 104% |
| CCn1nc(C(=O)NC[C@H]2CC[C@H](S(C)(=O)=O)CC2)c(Cl)c1-c1ccc(N[C@H](C)C(F)(F)F)cc1OC [Example 23, 4-chloro-1-ethyl-5-(2-methoxy-4-(((R)-1,1,1-trifluoropropan-2-yl)amino)phenyl)-N-(((1 r,4R)-4-(methylsulfonyl)cyclohexyl)methyl)-1H-pyrazole-3-carboxamide] | 4.6 | 38 | 28 | – | – | inhibition at 2 µM ([3]; HEK-293T, 2 μM compound concentration, read-out: RORγt (FL) Reporter Assay A or B, % inhibition): 104% |
| CCn1nc(C(=O)NC[C@H]2CC[C@H](S(C)(=O)=O)CC2)c(Cl)c1-c1ccc(C[C@H](C)C(F)(F)F)cc1OC (single isomer, unassigned) [Example 3, 4-Chloro-1-ethyl-5-(2-methoxy-4-((S*)-3,3,3-trifluoro-2-methylpropyl)phenyl)-N-(((1r,4R)-4-(methylsulfonyl)cyclohexyl)methyl)-1H-pyrazole-3-carboxamide] | – | 15 | 9 | 0.63 | 98 | – |
| CCn1nc(C(=O)NC[C@]2(O)CC[C@@H](S(C)(=O)=O)C[C@H]2O)c(Cl)c1-c1ccc(CC(C)(C)C(F)(F)F)cc1OC(F)F (single isomer, unassigned) [Example 46, 4-Chloro-5-(2-(difluoromethoxy)-4-(3,3,3-trifluoro-2,2-dimethylpropyl)phenyl)-N-(((1R*,2R*,4R*)-1,2-dihydroxy-4-(methylsulfonyl)cyclohexyl)methyl)-1-ethyl-1H-pyrazole-3-carboxamide] | – | 13 | 5 | 0.42 | 92 | – |
| CCn1nc(C(=O)NC[C@H]2CC[C@H](S(C)(=O)=O)CC2)c(F)c1-c1ccc(N[C@H](C)C(F)(F)F)cc1OC [Example 203, 1-Ethyl-4-fluoro-5-(2-methoxy-4-(((R)-1,1,1-trifluoropropan-2-yl)amino)phenyl)-N-(((1r,4R)-4-(methylsulfonyl)cyclohexyl)methyl)-1H-pyrazole-3-carboxamide] | 17 | 39 | 130 | – | – | inhibition at 6 µM ([3]; HEK-293T): 105% |
| CCn1nc(C(=O)NC[C@H]2CC[C@H](S(C)(=O)=O)CC2)c(Cl)c1-c1ccc(CC(C)(C)C(F)(F)F)cc1Cl [Example 165, 4-Chloro-5-(2-chloro-4-(3,3,3-trifluoro-2,2-dimethylpropyl)phenyl)-1-ethyl-N-(((1r,4r)-4-(methylsulfonyl)cyclohexyl)methyl)-1H-pyrazole-3-carboxamide] | 0.45 | 13 | 8 | – | – | inhibition at 0.07 µM ([3]; HEK-293T, 0.07 μM compound concentration (footnote *********), read-out: RORγt (FL) Reporter Assay A or B, % inhibition): 52% |
| CCn1nc(C(=O)NC[C@]2(O)CC[C@@H](S(C)(=O)=O)CC2)c(C)c1-c1ccc(CCCC(F)(F)F)cc1OC(F)F [Example 79, 5-(2-(Difluoromethoxy)-4-(4,4,4-trifluorobutyl)phenyl)-1-ethyl-N-(((1s,4s)-1-hydroxy-4-(methylsulfonyl)cyclohexyl)methyl)-4-methyl-1H-pyrazole-3-carboxamide] | 2 | 58 | 8.7 | – | 99 | – |
| CCn1nc(C(=O)NC[C@]2(O)CC[C@@H](S(C)(=O)=O)CC2)c(Cl)c1-c1ccc(CC(C)(C)C(F)(F)F)cc1OC(F)F [Example 132, 4-Chloro-5-(2-(difluoromethoxy)-4-(3,3,3-trifluoro-2,2-dimethylpropyl)phenyl)-1-ethyl-N-(((1s,4s)-1-hydroxy-4-(methylsulfonyl)cyclohexyl)methyl)-1H-pyrazole-3-carboxamide] | 0.45 | – | 8.1 | – | – | IC50 ([2]; Homo sapiens, CD4+ T, read-out: Human Th17 Assay, IC50): 6 nM; inhibition at 2 µM [3, 6]: 99% |
| COc1cc(N[C@H](C)C(F)(F)F)ccc1-c1c(Cl)c(C(=O)NC[C@H]2CC[C@H](S(C)(=O)=O)CC2)nn1CCO [Example 201, 4-Chloro-1-(2-hydroxyethyl)-5-(2-methoxy-4-(((R)-1,1,1-trifluoropropan-2-yl)amino)phenyl)-N-(((r,4R)-4-(methylsulfonyl)cyclohexyl)methyl)-1H-pyrazole-3-carboxamide] | 200 | 2800 | 1600 | – | – | inhibition at 6 µM ([3]; HEK-293T): 82% |
| CCn1nc(C(=O)NC[C@]2(N)CC[C@@H](S(C)(=O)=O)CC2)c(Cl)c1-c1ccc(CC(C)(C)C(F)(F)F)cc1OC(F)F [Example 19, N-(((1s*,4s*)-1-Amino-4-(methylsulfonyl)cyclohexyl)methyl)-4-chloro-5-(2-(difluoromethoxy)-4-(3,3,3-trifluoro-2,2-dimethylpropyl)phenyl)-1-ethyl-1H-pyrazole-3-carboxamide 2,2,2-trifluoroacetic acid salt] | – | 14 | – | – | – | inhibition at 3 µM [3, 6]: 122% |
| CCn1nc(C(=O)NC[C@H]2CC[C@H](S(C)(=O)=O)CC2)c(Cl)c1-c1ccc(CC(C)(C)C(F)(F)F)cc1OC [Example 44, 4-chloro-1-ethyl-5-(2-methoxy-4-(3,3,3-trifluoro-2,2-dimethylpropyl)phenyl)-N-(((1r,4r)-4-(methylsulfonyl)cyclohexyl)methyl)-1H-pyrazole-3-carboxamide] | – | 5.2 | – | – | 96 | – |
| CCn1nc(C(=O)NC[C@]2(O)CC[C@@H](S(C)(=O)=O)CC2)c(Cl)c1-c1ccc(C2(O)CCC(F)(F)CC2)cc1OC(F)F [Example 104, 4-Chloro-5-(4-(4,4-difluoro-1-hydroxycyclohexyl)-2-(difluoromethoxy)phenyl)-1-ethyl-N-(((1s,4s)-1-hydroxy-4-(methylsulfonyl)cyclohexyl)methyl)-1H-pyrazole-3-carboxamide] | 47 | – | 220 | – | – | inhibition at 3 µM [3, 6]: 98% |
| CCn1nc(C(=O)NC[C@H]2CC[C@H](S(C)(=O)=O)CC2)c(C)c1-c1ccc(CCC(F)(F)F)cc1OC [Example 226, 1-Ethyl-5-(2-methoxy-4-(3,3,3-trifluoropropyl)phenyl)-4-methyl-N-(((1r,4r)-4-(methylsulfonyl)cyclohexyl)methyl)-1H-pyrazole-3-carboxamide] | 12 | – | 38 | – | 71 | – |
